Like-named read-outs stand apart in the source and are kept apart here.
What was measured:
[1] = in vivo; cited from earlier work
[2] = tested on: human liver cytosol; test: Incubation of compound Formula Ia or Formula XXVII in human liver cytosol with AKR inhibitor or CYP3A4 inhibitor (formation of M+2 metabolite, LC-MS); format: in vitro ADME
Experimental: Prior to the addition of drug, the incubation mixture was preincubated for 2 min at 37° C. […] Human liver microsomes and cytosol without NADPH served as negative controls. Parallel incubations with the compound of Formula Ia were used as positive controls. […] All incubations were performed as described previously for human liver cytosols. […] Parallel incubations with the compound of Formula Ia were used as positive controls.

[3] = Clinical study: effect of ketoconazole or ibuprofen on the pharmacokinetics of Formula Ia; format: in vivo, human; conditions: for AUC / half-life: human, plasma, po, 400 mg
Experimental: The study was conducted in an open-label, randomized, 3-period, 2-sequence crossover manner (FIG. 2). During Period 1, all 12 human subjects were administered a single 400 mg dose of Formula Ia. During Periods 2 and 3, human subjects received multiple doses of interacting drug, either ketoconazole (400 mg BID) or ibuprofen (600 mg TID) in a randomized sequence. The interacting drug was administered beginning on Day 1 (3 days prior to Formula Ia administration) and continued through Day 6. A single dose of Formula Ia was administered on Day 4 (2 hours after administration of the AM dose of interacting drug). Plasma samples for pharmacokinetic and metabolite analyses of Formula Ia was collected at predose (0 hour), 0.5, 1, 1.5, 2, 2.5, 3, 4, 5, 6, 7, 8, 9, 10, 12, 24, 36, 48, and 72 hour postdose for each period. (The 48 and 72 hour postdose samples for Period 1 was collected in an outpatient setting). In Periods 2 and 3, additional blood samples were collected immediately prior to dosing of the Formula Ia on Day 4 and two hours post ketoconazole/ibuprofen administration on Day 5 for determination of ketoconazole or ibuprofen concentration. • Treatment A: Formula Ia (4×100 mg capsules); single dose, P.O following an overnight fast, administered on Day 1 or Period 1. • Treatment B: Ketoconazole 400 mg; PO, administered BID from Day 1 to Day 6, Formula Ia (4×100 mg capsules); single dose, PO following an overnight fast, administered on Day 4 (2 hours after the AM ketoconazole dose). • Treatment C: Ibuprofen 600 mg; PO, TID from Day 1 to Day 6 Formula Ia (4×100 mg capsules); single dose, PO following an overnight fast, administered on Day 4 (2 hours after the AM ibuprofen dose).
Human subjects received a single dose of Formula Ia on Day 1 of Period 1. In Period 2 and Period 3, human subjects were treated for 6 days with either ketoconazole or ibuprofen and received a single dose of Formula Ia on Day 4 of each period. There were at least 7 days between administration of Formula Ia in Period 1 and Period 2 and at least 14 days between administration of Formula Ia in Period 2 and 3.
The proportion of human subjects with plasma concentrations above the in vitro IC50 and IC90 for the HCV replicon at each time point was determined. This plasma concentration data was used to estimate the following primary pharmacokinetic variables for the determination of bioavailability comparisons: • AUC(tf)—Area under the plasma concentration-time curve from Time 0 […]. • Cmax—Maximum observed plasma concentration. • Tmax—Time to maximum observed plasma concentration. • t½—Terminal phase half-life.

[4] = Clinical study: pharmacokinetics of Formula Ia administered in combination with ritonavir; format: in vivo, human
Experimental: This study was an open-label, randomized, 2-period fixed-sequence, multiple-dose study (FIG. 4). The safety of coadministration of Formula Ia and ritonavir, as well as the quantitation of the ability of ritonavir to enhance Formula Ia PK parameters (specifically trough concentration values) in healthy human subjects was explored. A dose of 400 mg TID of Formula Ia coadministered with ritonavir was selected, as we have substantial safety and PK data available with Formula Ia administered alone at 400 mg TID and 800 TID for comparison. The dose selected of ritonavir was at a level to inhibit CYP3A4 and below the therapeutic dose for HIV. […] In this study, the effect of ritonavir on Formula Ia was examined as a low dose (100 mg) at two different dosing frequencies (i.e., once in the morning (QAM) and twice a day (BID)), which are commonly administered in HIV therapy. Based upon the findings of these regimens, subsequent regimens may be explored, with modification of the Formula Ia and/or ritonavir component(s). Human subjects received Formula Ia alone for 5 days in order to achieve steady-state. Human subjects were then randomized to receive one of two treatment regimens in which ritonavir was coadministered with Formula Ia (Formula Ia for 10 days, ritonavir administered for 12 days). Steady-state PK samples for Formula Ia were collected on Day 5 (Formula Ia alone), and on Day 15 (Formula Ia+ritonavir) and the PK parameters (primarily trough concentrations values) compared. […] In Period 1, all 16 human subjects received Treatment A and in Period 2 human subjects were randomized to either Treatment B or Treatment C (8 human subjects/treatment). […] Treatment A: Formula Ia 400 mg TID, every 8 hours) (Q8° following a meal or snack. Period 2 (Days 6 to 17): Treatment B: Formula Ia 400 mg TID (Q8°, Days 6 to 15), ritonavir 100 mg QAM (Days 6 to 17), following a meal or snack; Treatment C: Formula Ia 400 mg BID, every 12 hours ([…]°), (Days 6 to 15), ritonavir 100 mg BID, […]° (Days 6 to 17), following a meal or snack. Formula Ia (2×200 mg 3% SLS containing capsules), PO, TID, following a meal or snack. Formula Ia (2×200 mg 3% SLS containing capsules), PO, BID, following a meal or snack. Ritonavir (1×100 mg capsules), PO, QAM, following a meal or snack. Ritonavir (1×100 mg capsules), PO, BID, following a meal or snack. The trough levels after multiple-dosing of Formula Ia alone (Day 5) and after multiple-dosing of Formula Ia in combination with ritonavir (Day 15) were compared. […] AUC, Cmax, Cmin, and Tmax. […] The primary pharmacokinetic parameter is Cmin. The secondary parameters are Cmax and AUC. The log transformed pharmacokinetic parameters including Cmin, AUC, and Cmax were statistically analyzed using ANOVA model extracting effects due to treatment and human subject. […] The corresponding 90% confidence intervals were also provided. There is no intention to compare Treatments B and C to each other. • Treatment A: Formula Ia 400 mg TID (Q8°) following a meal or snack. Period 2 (Days 6 to 17). • Treatment B: Formula Ia 400 mg TID (Q8°, Days 6 to 15), ritonavir 100 mg QAM (Days 6 to 17) following a meal or snack. • Treatment C: Formula Ia 400 mg BID ([…]° Days 6 to 15), ritonavir 100 mg BID ([…]°, Days 6 to 17) following a meal or snack.

[5] = Exposure to Formula Ia when coadministered with food; format: in vivo
[6] = Exposure multiple of Formula Ia, most sensitive animal species versus humans; format: in vivo; conditions: most sensitive animal species compared with mean exposure in humans receiving 400 mg TID
[7] = tested on: HCV; test: EC90 of Formula XIVa used as plasma concentration threshold; conditions: Hepatitis C virus
[8] = tested on: HCV; conditions: HCV positive patients, Nelson et al. 2003; cited from earlier work
[9] = Mean (% CV), plasma Formula Ia, single 400 mg dose PO, human subjects
[10] = co-administering ketoconazole with Formula Ia

In the case of `CC(C)c1nc(CN(C)C(=O)N[C@H](C(=O)N[C@@H](Cc2ccccc2)C[C@H](O)[C@H](Cc2ccccc2)NC(=O)OCc2cncs2)C(C)C)cs1` [ritonavir], the half life [1] is given as 3 to 5 h.

For `CC(C)(C)NC(=O)N[C@H](C(=O)N1CC2C([C@H]1C(=O)NC(CC1CCC1)C(=O)C(N)=O)C2(C)C)C(C)(C)C` (some centres unmarked) [Formula Ia], the “1ST PARENT PEAK AREA” value ([2]; HL Cytosol w/ NADPH + 2 uM Ritonavir) was 3.81E+07, the “1ST PARENT PEAK AREA” value ([2]; HL Cytosol w/ NADPH + 50 uM Mefenamic acid) was 6.19E+07 and the “1ST PARENT PEAK AREA” value ([2]; HL Cytosol w/ NADPH + 100 uM Flufenamic acid) was 6.33E+07. For the same molecule, the “1ST PARENT PEAK AREA” value ([2]; HL Cytosol w/ NADPH + 100 uM Phenolphthalein) was 6.23E+07, the “1ST PARENT PEAK AREA” value ([2]; HL Cytosol w/ NADPH + 200 uM Diflunisal) was 6.10E+07 and the “1ST PARENT PEAK AREA” value ([2]; HL Cytosol w/ NADPH Vehicle Control) was 3.95E+07. The “1ST PARENT PEAK AREA” value ([2]; HL Cytosol w/o NADPH, 20 μM substrate, 60 min, 37° C.) was 7.41E+07, the Cmax ([3]; Mean (% CV), plasma Formula Ia, single 400 mg dose PO, fasted human subjects, alone or with ketoconazole 400 mg BID or ibuprofen 600 mg TID) was 571 ng/mL and the AUC(0-t) [3, 9] was 2000 ng·h/mL. The C8 [3, 9] was 48.0 (38), the MRT [3, 9] was 6.57 h and the “increase in Cmax (average)” value [3, 10] was 40%. For the same molecule, the “increase of overall exposure (AUC)” value [3, 10] was “more than 2 fold”, the “increase of trough concentration (C8)” value [3, 10] was “approximately 3 fold” and the “increase in the bioavailability of Formula Ia” value ([3]; coadministration of ketoconazole compared to monotherapy of Formula Ia alone) was 2 fold. The “mean residence time (MRT) and effective half-life” value ([3]; effect of ketoconazole) was “increased”, the AUC ([3]; Mean (% CV), plasma Formula Ia, single 400 mg dose PO, human subjects, read-out: AUC(l)) was 2070 ng·h/mL and the AUC ([3]; Mean (% CV), plasma Formula Ia, single 400 mg dose PO, human subjects, read-out: AUCall) was 2040 ng·h/mL. The half-life ([3]; Mean (% CV), plasma Formula Ia, single 400 mg dose PO, human subjects, read-out: t½ (converted)) was 9.11 h, the half-life ([3]; Mean (% CV), plasma Formula Ia, single 400 mg dose PO, human subjects, read-out: t½ eff (converted)) was 3.3 h and the Tmax ([3]; median, plasma Formula Ia, single 400 mg dose PO, human subjects) was 1.75 h. The C8 ([4]; Mean PK (% CV), Formula Ia TID (400 mg) alone, Day 5) was 104 (31), the “effect on the PK parameters examined” value ([4]; coadministration with 100 mg ritonavir QD or BID compared to monotherapy of Formula Ia alone) was “no effect” and the Tmax ([4]; human, plasma, oral, Mean PK (% CV), Formula Ia TID (400 mg) alone, Day 5) was 2.13 h. For the same molecule, the AUC ([4]; human, plasma, oral, Mean PK (% CV), Formula Ia TID (400 mg) alone, Day 5, read-out: AUC8) was 4120 ng·h/mL, the Cmax ([4]; plasma, oral, Mean PK (% CV), Formula Ia TID (400 mg) alone, Day 5, with food, healthy human subjects) was 1360 ng/mL and the exposure [5] was “increases”. It also gave an exposure multiple [6] of at least 4 fold.

With `CCCCC(NC(=O)[C@@H]1[C@@H]2[C@H](CN1C(=O)[C@@H](NC(=O)NC1(CS(=O)(=O)C(C)(C)C)CCCCC1)C(C)(C)C)C2(C)C)C(=O)C(=O)NC1CC1` (some centres unmarked) [Formula XIVa] the EC90 [7] was 0.03 µg/mL.

B1: recombinant human IL-10: recombinant human IL-10 given to HCV positive patients in a Phase II clinical study (protein)
chain: SPGQGTQSENSCTHFPGNLPNMLRDLRDAFSRVKTFFQMKDQLDNLLLKESLLEDFKGYLGCQALSEMIQFYLEEVMPQAENQDPDIKAHVNSLGENLKTLRLRLRRCHRFLPCENKSKAVEQVKNAFNKLQEKGIYKAMSEFDIFINYIEAYMTMKIRN
For B1, the hepatic fibrosis [8] is given as “decrease” and the viral load [8] is given as “increase”.

Source: US20100291034A1, “COMBINATIONS OF HCV PROTEASE INHIBITOR(S) AND CYP3A4 INHIBITOR(S), AND METHODS OF TREATMENT RELATED THERETO” (Schering Corporation, priority 2006, published 2010)
